# Test results published in US20110257168A1, “DERIVATIVES OF OXABISPIDINE AS NEURONAL NICOTINIC ACETYLCHOLINE RECEPTOR LIGANDS” (Targacept, Inc., priority 2008, published 2011).
# Read-outs that look alike come from different tables or passages of the source.
# Columns and labels:
# [1] = biological target: human α4β2 (Homo sapiens, UniProt P17787+P43681); assay: Competition binding to human α4β2 receptors in membrane preparations
# Procedure: (§1) SH-EP1/human α4β2 (Eaton et al., 2003), SH-EP1/human α4β4 (Gentry et al., 2003), SH-EP1/α6β3β4α5 (Grinevich et al., 2005), TE671/RD and SH-SY5Y cell lines (obtained from Dr. Ron Lukas, Barrow Neurological Institute) were maintained in proliferative growth phase in Dulbecco's modified Eagle's medium (Gibco/BRL) with 10% horse serum (Gibco BRL), 5% fetal bovine serum (HyClone, Logan Utah), 1 mM sodium pyruvate, 4 mM L-glutamine. For maintenance of stable transfectants, the α4β2 and α4β4 cell media was supplemented with 0.25 mg/mL zeocin and 0.13 mg/mL hygromycin B. Selection was maintained for the α6β3β4α5 cells with 0.25 mg/mL of zeocin, 0.13 mg/mL of hygromycin B, 0.4 mg/mL of geneticin, and 0.2 mg/mL of blasticidin. HEK/human α7/RIC3 cells (obtained from J. Lindstrom, U. Pennsylvania) were maintained in proliferative growth phase in Dulbecco's modified Eagle's medium (Gibco/BRL) with 10% fetal bovine serum (HyClone, Logan Utah), 1 mM sodium pyruvate, 4 mM L-glutamine, 0.4 mg/mL geneticin; 0.2 mg/ml hygromycin B.
# (§2) Preparation of membranes from rat tissues. Rat cortices were obtained from Analytical Biological Services, Incorporated (ABS, Wilmington, Del.). Tissues were dissected from female Sprague-Dawley rats, frozen and shipped on dry ice. Tissues were stored at −20° C. until needed for membrane preparation. Cortices from 10 rats were pooled and homogenized by Polytron (Kinematica GmbH, Switzerland) in 10 volumes (weight:volume) of ice-cold preparative buffer (KCl, 11 mM; KH2PO4, 6 mM; NaCl 137 mM; Na2HPO4 8 mM; HEPES (free acid), 20 mM; iodoacetamide, 5 mM; EDTA, 1.5 mM; 0.1 mM PMSF pH 7.4). The resulting homogenate was centrifuged at 40,000 g for 20 minutes at 4° C. and the resulting pellet was resuspended in 20 volumes of ice-cold water. After 60-minute incubation at 4° C., a new pellet was collected by centrifugation at 40,000 g for 20 minutes at 4° C. The final pellet was resuspended in preparative buffer and stored at −20° C. On the day of the assay, tissue was thawed, centrifuged at 40,000 g for 20 minutes and then resuspended in PBS (Dulbecco's Phosphate Buffered Saline, Life Technologies, pH 7.4) to a final concentration of 2-3 mg protein/mL. Protein concentrations were determined using the Pierce BCA Protein Assay kit (Pierce Biotechnology, Rockford, Ill.), with bovine serum albumin as the standard. Preparation of membranes from clonal cell lines. Cells were harvested in ice-cold PBS, pH 7.4, then homogenized with a polytron (Brinkmann Instruments, Westbury, N.Y.). Homogenates were centrifuged at 40,000 g for 20 minutes (4° C.). The pellet was resuspended in PBS and protein concentration determined using the Pierce BCA Protein Assay kit (Pierce Biotechnology, Rockford, Ill.).
# (§3) Competition binding to receptors in membrane preparations. Binding to nicotinic receptors was assayed on membranes using standard methods adapted from published procedures (Lippiello and Fernandes, 1986; Davies et al., 1999). In brief, membranes were reconstituted from frozen stocks (approximately 0.2 mg protein) and incubated for 2 h on ice in […] assay buffer (PBS) in the presence of competitor compound (0.001 nM to […]) and radioligand. [^3H]-nicotine (L-(−)-[N-methyl-3H]-nicotine, 69.5 Ci/mmol, Perkin-Elmer Life Sciences) was used for human α4β2 binding studies. [^3H]-epibatidine (52 Ci/mmol, Perkin-Elmer Life Sciences) was used for binding studies at the other receptor subtypes. Incubation was terminated by rapid filtration on a multimanifold tissue harvester (Brandel, Gaithersburg, Md.) using GF/B filters presoaked in 0.33% polyethyleneimine (w/v) to reduce non-specific binding. Filters were washed 3 times and the radioactivity retained was determined by liquid scintillation counting.
# (§4) Binding data analysis. Binding data were expressed as percent total control binding. Replicates for each point were averaged and plotted against the log of drug concentration. […]
# [2] = biological target: T1, Rat α7 (Rattus norvegicus, UniProt Q05941); assay: Competition binding to rat α7 receptors in membrane preparations; details: membranes, [3H]-epibatidine competition; Ki by Cheng-Prusoff; read-out: Rat α7 Ki
# T1 construct: Preparation of membranes from rat tissues; Rat cortices were obtained from Analytical Biological Services; tissue Analytical Biological Services, Incorporated (ABS, Wilmington, Del.); host or cells: rat brain membranes (only cortex is described)
# Procedure: as §2, §3
# (§5) Binding data analysis. Binding data were expressed as percent total control binding. Replicates for each point were averaged and plotted against the log of drug concentration. The IC50 (concentration of the compound that produces 50% inhibition of binding) was determined by least squares non-linear regression using GraphPad Prism software (GraphPAD, San Diego, Calif.). Ki was calculated using the Cheng-Prusoff equation (Cheng and Prusoff, 1973).
# [3] = biological target: T2, Human α7 (Homo sapiens, UniProt P36544); assay: Competition binding to human α7 receptors in membrane preparations
# T2 construct: host or cells: HEK cells co-expressing RIC3
# Procedure: as §1, §2, §3, §4
# [4] = biological target: T3, Rat α4β2 (Rattus norvegicus, UniProt P09483+P12390); assay: Competition binding to rat α4β2 receptors in membrane preparations
# T3 construct: Preparation of membranes from rat tissues; Rat cortices were obtained from Analytical Biological Services; tissue Analytical Biological Services, Incorporated (ABS, Wilmington, Del.); host or cells: rat cortex membranes (female Sprague-Dawley)
# Procedure: as §2, §3, §5
# [5] = membranes, [3H]-epibatidine competition, Ki by Cheng-Prusoff, read-out: Human α7 Ki
# [6] = membranes, [3H]-epibatidine competition, Ki by Cheng-Prusoff, read-out: Rat α4β2 Ki
# [7] = membranes, [3H]-nicotine competition, Ki by Cheng-Prusoff, read-out: human α4β2 Ki
SMILES,Ki [1] [nM],Ki [2] [nM],"Ki [3, 5] [nM]","Ki [4, 6] [nM]","Ki [1, 7] [nM]",Ki [4] [nM],Ki [3] [nM]
"Clc1cc(N2CC3CNCC(C2)O3)cnc1Cl [3-(5,6-dichloropyridin-3-yl)-9-oxa-3,7-diazabicyclo[3.3.1]nonane]",0.3,84,39,0.7,,,
"Clc1ccc(Oc2cncc(N3CC4CNCC(C3)O4)c2)cc1Cl [3-(5-(3,4-dichlorophenoxy)pyridin-3-yl)-9-oxa-3,7-diazabicyclo[3.3.1]nonane]",,210,360,,3.5,11,
"c1ncc(N2CC3CNCC(C2)O3)cc1OCC1CC1 [3-(5-(cyclopropylmethoxy)pyridin-3-yl)-9-oxa-3,7-diazabicyclo[3.3.1]nonane]",,9300,,,0.5,2.9,
"FC(F)Oc1cncc(N2CC3CNCC(C2)O3)c1 [3-(5-(difluoromethoxy)pyridin-3-yl)-9-oxa-3,7-diazabicyclo[3.3.1]nonane]",0.42,,1600,0.36,,,
"Clc1cncc(N2CC3CNCC(C2)O3)c1 [3-(5-chloropyridin-3-yl)-9-oxa-3,7-diazabicydo[3.3.1]nonane]",1,370,180,2.1,,,
"N#Cc1cc(N2CC3CNCC(C2)O3)cnc1F [3-(5-cyano-6-fluoropyridin-3-yl)-9-oxa-3,7-diazabicyclo[3.3.1]nonane]",,,16000,,19,24,
"N#Cc1cncc(N2CC3CNCC(C2)O3)c1 [3-(5-cyanopyridin-3-yl)-9-oxa-3,7-diazabicyclo[3.3.1]nonane]",,,2000,,2.7,11,
"Clc1ncc(N2CC3CNCC(C2)O3)cc1C1CC1 [3-(5-cyclopropyl-6-chloropyridin-3-yl)-9-oxa-3,7-diazabicyclo[3.3.1]nonane]",,,,,0.18,14,87
"c1ncc(N2CC3CNCC(C2)O3)cc1C1CC1 [3-(5-cyclopropylpyridin-3-yl)-9-oxa-3,7-diazabicyclo[3.3.1]nonane]",,,1300,,2,6.4,
"CN1CC2CN(c3cncc(F)c3)CC(C1)O2 [3-(5-fluoropyridin-3-yl)-7-methyl-9-oxa-3,7-diazabicyclo[3.3.1]nonane]",,,2100,280,33,,
"CC(C)Oc1cncc(N2CC3CNCC(C2)O3)c1 [3-(5-isopropoxypyridin-3-yl)-9-oxa-3,7-diazabicyclo[3.3.1]nonane]",,61000,,,0.9,1.3,
"COc1cc(N2CC3CNCC(C2)O3)cnc1F [3-(5-methoxy-6-fluoropyridin-3-yl)-9-oxa-3,7-diazabicyclo[3.3.1]nonane]",0.43,,1000,1.1,,,
"COc1cncc(N2CC3CNCC(C2)O3)c1 [3-(5-methoxypyridin-3-yl)-9-oxa-3,7-diazabicyclo[3.3.1]nonane]",,560,350,,0.9,1.9,
"Cc1cncc(N2CC3CN(C)CC(C2)O3)c1 [3-(5-methylpyridin-3-yl)-7-methyl-9-oxa-3,7-diazabicyclo[3.3.1]nonane]",,,8700,370,25,,
"Cc1cncc(N2CC3CNCC(C2)O3)c1 [3-(5-methylpyridin-3-yl)-9-oxa-3,7-diazabicydo[3.3.1]nonane]",,200,4500,,0.3,0.5,
"FC(F)(F)c1cncc(N2CC3CNCC(C2)O3)c1 [3-(5-trifluoromethylpyridin-3-yl)-9-oxa-3,7-diazabicyclo[3.3.1]nonane]",,17000,,,3.8,9.7,
"FC(F)Oc1cc(N2CC3CNCC(C2)O3)cnc1Cl [3-(6-chloro-5-(difluoromethoxy)pyridin-3-yl)-9-oxa-3,7-diazabicyclo[3.3.1]nonane]",,,560,,0.16,0.08,
"Clc1ccc(N2CC3CNCC(C2)O3)nn1 [3-(6-chloropyridazin-3-yl)-9-oxa-3,7-diazabicyclo[3.3.1]nonane]",63,,1300,96,,,
"Clc1ccc(N2CC3CNCC(C2)O3)cn1 [3-(6-chloropyridin-3-yl)-9-oxa-3,7-diazabicydo[3.3.1]nonane]",,210,240,,1.2,5.2,
"N#Cc1ncc(N2CC3CNCC(C2)O3)cc1OC(F)F [3-(6-cyano-5-(difluoromethoxy)pyridin-3-yl)-9-oxa-3,7-diazabicyclo[3.3.1]nonane]",,,940,,0.26,0.12,
"N#Cc1ccc(N2CC3CNCC(C2)O3)cn1 [3-(6-cyanopyridin-3-yl)-9-oxa-3,7-diazabicyclo[3.3.1]nonane]",,,8100,290,42,,
"Fc1ccc(N2CC3CNCC(C2)O3)cn1 [3-(6-fluoropyridin-3-yl)-9-oxa-3,7-diazabicyclo[3.3.1]nonane]",,1400,180,,2.5,16,
"Cc1ccc(N2CC3CNCC(C2)O3)cn1 [3-(6-methylpyridin-3-yl)-9-oxa-3,7-diazabicydo[3.3.1]nonane]",4.9,,600,30,,,
"FC(F)(F)c1ccc(N2CC3CNCC(C2)O3)cn1 [3-(6-trifluoromethylpyridin-3-yl)-9-oxa-3,7-diazabicyclo[3.3.1]nonane]",6.8,,1900,48,,,
"c1cc2cc(N3CC4CNCC(C3)O4)cnc2o1 [3-(furo[2,3-b]pyridin-5-yl)-9-oxa-3,7-diazabicyclo[3.3.1]nonane]",,,6600,,48,23,
"c1cc2ncc(N3CC4CNCC(C3)O4)cc2o1 [3-(furo[3,2-b]pyridin-6-yl)-9-oxa-3,7-diazabicyclo[3.3.1]nonane]",,,5700,,50,91,
"c1cnc(N2CC3CNCC(C2)O3)cn1 [3-(pyrazin-2-yl)-9-oxa-3,7-diazabicyclo[3.3.1]nonane]",,,2200,250,37,,
"CN1CC2CN(c3cccnc3)CC(C1)O2 [3-methyl-7-(pyridin-3-yl)-9-oxa-3,7-diazabicyclo[3.3.1]nonane]",,,5900,180,95,,
